Where no end group is shown, it is not given here.
Tested on: ED-1
Experiment: Goldblatt model: ED-1 levels of the aortic wall (immunohistochemistry)
Format: in vivo, rat
Details: GB rats
Source text: Lewis normotensive rats (weight 150±10 g), which were separated randomly into the experimental hypertension model group or GB (Ocaranza et al. J. Hypertens. 20:413-20, 2002) or control group (S) were used. The latter corresponded to pseudo-operated animals. All animals were maintained under controlled conditions of light and darkness and had free access to food and water. Four weeks after surgery and at a blood pressure above 140 mmHg, GB rats were randomized for the chronic administration of angiotensin-(1-9) through an osmotic pump (602 ng kg^−1min^−1) via the jugular vein during two weeks. The animals were euthanized after 6 weeks post-surgery.
Immunostaining was performed using the streptavidin-biotin-peroxidase method with the inflammation marker ED-1. This is a glycoprotein expressed primarily in the lysosomal membrane of active macrophages (Leskovar et al. J. Exp. Biol. 203:1783-1795, 2000).
In order to block endogenous peroxidase, the samples were deparaffinized, rehydrated and treated with 10% H2O2 in methanol for 1 h. Then, the tissues were incubated with monoclonal antibody anti ED-1 (clone MCA341R, Serotec) diluted 1/1000 in 1% BSA prepared in PBS-0.05% Tween 20 overnight at 4° C. in a humid chamber. The sections were washed three times with 1×PBS-0.05% Tween 20, pH 7.4 for 5 min and incubated with the biotinylated secondary antibody for 30 min at room temperature. […]

DRVYIHPFH
decrease of ED-1 levels: 82%
